Measured values as given in patent US20190151403A1, “NOVEL CYCLOSPORIN DERIVATIVES AND USES THEREOF” (S&T Global Inc., priority 2016, published 2019).
Where two headings read alike, the source gives them in different places. Starred links: 1 amine or outer side, 2 acyl side, 3 side chain; linkers in the order of their positions; H or OH if unused. Non-standard residues stand in square brackets, D forms with d. Residues, ends and D or L forms follow the SMILES beside them. ξ: configuration not given here. *: point of attachment. NMeThr(4R-Me,4-(CH2)6NHAc) = CN[C@H](C(=O)O)[C@H](O)[C@H](C)CCCCCCNC(C)=O; MeBmt = C/C=C/C[C@@H](C)[C@@H](O)[C@H](NC)C(=O)O; X1 = CCN(CC)CCS[C@H](C(=O)[*:2])N(C)[*:1]; NMeIle(3ξ) = CCC(C)[C@H](NC)C(=O)O; NMeL = CN[C@@H](CC(C)C)C(=O)O; NMeV = CN[C@H](C(=O)O)C(C)C; dNMeC = CN[C@H](CS)C(=O)O; dNMeS = CN[C@H](CO)C(=O)O; dNMeA = CN[C@H](C)C(=O)O; Abu = CC[C@H](N)C(=O)O; Butyl(4-OH) = OCCCC*

Assays:
[1] = system: HCV replicon in cell line ET (luc-ubi-neo/ET), Huh7 human hepatoma cell line; experiment: HCV subgenomic replicon assay (luciferase end point); format: cell-based
Protocol: Anti-HCV activity of cyclosporine derivatives were evaluated in the HCV subgenomic replicon assay. The assay use the cell line ET (luc-ubi-neo/ET), which is a Huh7 human hepatoma cell line harboring an HCV replicon with a stable luciferase (Luc) reporter. HCV RNA replication was assessed by quantifying HCV replicon-derived luciferase activity. The antiviral activity of cyclosporine analogs were evaluated after drug treatment to derive EC50 and EC90 values by using the luciferase end point (Krieger, N., et al., 2001, J. Viral. 75, 4614-4624; Pietschmann, T., et al., 2002, J. Viral. 76, 4008-4021; each of which is incorporated herein by reference). Cytotoxicity was assessed in parallel.

Cyclophilin D (CyPD) = Cyclophilin D (CyPD) (Homo sapiens, UniProt P30405); experiment: Cyclophilin D PPIase inhibition assay; format: biochemical
Chain of Cyclophilin D (CyPD) (P30405 30-207, species assumed): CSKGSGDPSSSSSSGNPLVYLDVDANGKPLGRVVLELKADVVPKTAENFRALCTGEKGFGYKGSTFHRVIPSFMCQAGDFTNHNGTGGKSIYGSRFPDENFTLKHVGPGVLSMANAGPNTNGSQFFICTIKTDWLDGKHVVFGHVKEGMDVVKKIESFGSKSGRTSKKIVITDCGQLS

Human recombinant CypA = target: T1, Human recombinant CypA (Homo sapiens, UniProt P62937); experiment: Cyclophilin A PPIase inhibition, α-chymotrypsin-coupled assay; format: biochemical; conditions: 10 nM human recombinant CypA, 5° C, succinyl-AAPF-pNA substrate
T1 construct: purchased Atgen
T1 sequence (P62937 whole entry): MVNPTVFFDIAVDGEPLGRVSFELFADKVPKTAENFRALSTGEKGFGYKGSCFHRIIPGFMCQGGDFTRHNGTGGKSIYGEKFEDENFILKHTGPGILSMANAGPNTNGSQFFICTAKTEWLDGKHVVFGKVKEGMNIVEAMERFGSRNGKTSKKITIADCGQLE
Protocol: Inhibition of CyPA isomerase activity was assessed using the α-chymotrypsin-coupled assay adapted to a 96-well plate format. Human recombinant CypA (Atgen) was dissolved to 10 nM in isomerase buffer (50 mM Hepes, 100 mM NaCl, 1 mg/ml bovine serum albumin, 1 mg/ml a-chymotrypsin; pH 8). Succinyl-AAPF-pNA peptide substrate (Sigma) was dissolved to 3.2 mM in dried LiCl/trifluoroethanol. […] All solutions were equilibrated, and reactions conducted at 5° C. Reactions were initiated by mixing 95 μL reaction mix with 5 μL peptide preloaded in multiple wells of 96-well plates and measuring OD405 nm in each well at 6-sec intervals for 6 min using a BMG Polarstar Galaxy plate reader. Data were fitted with Graphpad Prism 6.0 to obtain first-order rate constants. Enzyme catalyzed rate constants were calculated by subtracting the rate constant from uncatalyzed reactions (no CypA), and the catalytic rate constants plotted as a function of inhibitor concentration to obtain IC50s (see […] et al., 2015, PLOS ONE).

HCV = conditions: reported by Hopkins et al. 2010; read-out: in vitro anti-HCV activity (EC50); cited from earlier work
[2] = system: multi-genotype HCV GT1a to 4a; conditions: cited from earlier work
cyclophilin A = cyclophilin A (Homo sapiens, UniProt P62937); conditions: published, Gallay et al. 2016; read-out: cyclophilin binding EC50 for cyclophilin A; cited from earlier work
Chain of cyclophilin A (P62937 whole entry): as above

[3] = Hepatitis C virus, Huh-7, read-out: Antiviral activity
[4] = HCV subgenomic replicon, Huh7 ET cells, luciferase end point, read-out: Antiviral activity

Q: Which IC50 [1, 3] does the source give for C/C=C/C[C@@H](C)[C@@H](O)[C@H]1C(=O)N[C@@H](CC)C(=O)N(C)[C@H](SCCN(C)C)C(=O)N(C)[C@@H](CC(C)(C)O)C(=O)N[C@@H](C(C)C)C(=O)N(C)[C@@H](CC(C)C)C(=O)N[C@@H](C)C(=O)N[C@H](C)C(=O)N(C)[C@@H](CC(C)C)C(=O)N(C)[C@@H](CC(C)C)C(=O)N(C)[C@@H](C(C)C)C(=O)N1C here?
A: The IC50 was 35 to 90 nM.

Q: What about the EC50 (Cyclophilin D (CyPD)) of the same compound?
A: The EC50 was 4 to 10 nM.

Q: Which IC50 [1, 4] does the source give for C/C=C/C[C@@H](C)[C@@H](O)[C@H]1C(=O)N[C@@H](CC)C(=O)N(C)[C@H](SCCN(CC)CC)C(=O)N(C)[C@@H](C(C)CC)C(=O)N[C@@H](C(C)C)C(=O)N(C)[C@@H](CC(C)C)C(=O)N[C@@H](C)C(=O)N[C@H](C)C(=O)N(C)[C@@H](CC(C)C)C(=O)N(C)[C@@H](CC(C)C)C(=O)N(C)[C@@H](C(C)C)C(=O)N1C (stereo partly drawn) [(R)-2-(N,N-Diethylamino)ethylthio-Sar]-3-[N-MeIle]-4-cyclosporin] (cyclo(A[dA][NMeL][NMeL][NMeV][MeBmt][Abu][X1][NMeIle(3ξ)]V[NMeL])) here?
A: Its IC50 is < 35 nM.

Q: Which IC50 [1, 3] does the source give for C/C=C/C[C@@H](C)[C@@H](O)[C@H]1C(=O)N[C@@H](CC)C(=O)N(C)[C@H](C)C(=O)N(CC)[C@@H](C(C)C)C(=O)N[C@@H](C(C)C)C(=O)N(C)[C@@H](CC(C)C)C(=O)N[C@@H](C)C(=O)N[C@H](C)C(=O)N(C)[C@@H](CC(C)C)C(=O)N(C)[C@@H](CC(C)C)C(=O)N(C)[C@@H](C(C)C)C(=O)N1C [Alisporivir] here?
A: Its IC50 is < 35 nM.

Q: And the IC50 (Human recombinant CypA)?
A: The IC50 was < 4 nM.

Q: And the EC50 (Cyclophilin D (CyPD))?
A: Its EC50 is < 4 nM.

Q: With C/C=C/C[C@@H](C)[C@@H](O)[C@H]1C(=O)N[C@@H](CC)C(=O)N(C)[C@H](SCCN(C)C)C(=O)N(C)[C@@H](CC(C)(C)O)C(=O)N[C@@H](C(C)C)C(=O)N(C)[C@@H](CC(C)C)C(=O)N[C@@H](C)C(=O)N[C@H](C)C(=O)N(C)[C@@H](CC(C)C)C(=O)N(C)[C@@H](CC(C)C)C(=O)N(C)[C@@H](C(C)C)C(=O)N1C [SCY-635] as the compound, how does the EC50 (HCV) read?
A: Its EC50 is 100 nM.

Q: For CC=CCC(C)C(O)C1C(=O)NC(CC)C(=O)N(C)C(CSCCCCO)C(=O)N(C)C(CC(C)(C)O)C(=O)NC(C(C)C)C(=O)N(C)C(CC(C)C)C(=O)NC(C)C(=O)NC(C)C(=O)N(C)C(CC(C)C)C(=O)N(C)C(CC(C)C)C(=O)N(C)C(C(C)C)C(=O)N1C (centres unmarked) [STG-175], which “cross-resistance with direct anti-viral agents (DAAs)” value [2] is on record?
A: Its value is “No cross-resistance is observed”.

Q: What about the “viral replication rebound after cessation of drug treatment” value ([2]; compared with Sofosbuvir) of the same compound?
A: The value was “no viral replication rebound is observed”.

Q: And the EC50 ([2]; multi-genotype HCV GT1a to 4a, published, Gallay et al. 2016, read-out: anti-HCV activity EC50)?
A: The EC50 was 11.5 to 38.9 nM.

Q: And the EC50 (cyclophilin A)?
A: The EC50 was 0.6 nM.

Q: Which IC50 [1, 3] does the source give for CC[C@@H]1NC(=O)[C@H]([C@H](O)[C@H](C)CCCCCCNC(C)=O)N(C)C(=O)[C@H](C(C)C)N(C)C(=O)[C@H](CC(C)C)N(C)C(=O)[C@H](CC(C)C)N(C)C(=O)[C@@H](C)NC(=O)[C@H](C)NC(=O)[C@H](CC(C)C)N(C)C(=O)[C@H](C(C)C)NC(=O)[C@H](CC(C)C)N(C)C(=O)[C@@H](C)N(C)C1=O [[8-(2-Acetamidoethyl)-6,7-dihydro-MeBmt]-1-[(R)-Methyl]-3-cyclosporin] (cyclo(A[dA][NMeL][NMeL][NMeV][NMeThr(4R-Me,4-(CH2)6NHAc)][Abu][dNMeA][NMeL]V[NMeL])) here?
A: The IC50 was < 35 nM.

Q: With CC[C@@H]1NC(=O)[C@H]([C@H](O)[C@H](C)CCCCCCNC(C)=O)N(C)C(=O)[C@H](C(C)C)N(C)C(=O)[C@H](CC(C)C)N(C)C(=O)[C@H](CC(C)C)N(C)C(=O)[C@@H](C)NC(=O)[C@H](C)NC(=O)[C@H](CC(C)C)N(C)C(=O)[C@H](C(C)C)NC(=O)[C@H](CC(C)C)N(C)C(=O)[C@@H](CO)N(C)C1=O [[8-(2-Acetamidoethyl)-6,7-dihydro-MeBmt]-1-[(R)-hydroxymethyl-Sar]-3-cyclosporin] (cyclo(A[dA][NMeL][NMeL][NMeV][NMeThr(4R-Me,4-(CH2)6NHAc)][Abu][dNMeS][NMeL]V[NMeL])) as the compound, how does the IC50 [1, 3] read?
A: The IC50 was < 35 nM.

Q: Which IC50 [1, 3] does the source give for CC[C@@H]1NC(=O)[C@H]([C@H](O)[C@H](C)CCCCCCNC(C)=O)N(C)C(=O)[C@H](C(C)C)N(C)C(=O)[C@H](CC(C)C)N(C)C(=O)[C@H](CC(C)C)N(C)C(=O)[C@@H](C)NC(=O)[C@H](C)NC(=O)[C@H](CC(C)C)N(C)C(=O)[C@H](C(C)C)NC(=O)[C@H](CC(C)C)N(C)C(=O)[C@@H](CSCCCCO)N(C)C1=O [[8-(2-Acetamidoethyl)-6,7-dihydro-MeBmt]-1-[(S)-(4-hydroxybutylthio)methyl-Sar]-3-cyclosporin] (cyclo(A[dA][NMeL][NMeL][NMeV][NMeThr(4R-Me,4-(CH2)6NHAc)][Abu][dNMeC](Butyl(4-OH))[NMeL]V[NMeL])) here?
A: The IC50 was < 35 nM.

Q: And the IC50 (Human recombinant CypA)?
A: The IC50 was < 4 nM.

Q: What about the EC50 (Cyclophilin D (CyPD)) of the same compound?
A: Its EC50 is < 4 nM.

Q: With CC[C@@H]1NC(=O)[C@H]([C@H](O)[C@H](C)CCCCCCNC(C)=O)N(C)C(=O)[C@H](C(C)C)N(C)C(=O)[C@H](CC(C)C)N(C)C(=O)[C@H](CC(C)C)N(C)C(=O)[C@@H](C)NC(=O)[C@H](C)NC(=O)[C@H](CC(C)C)N(C)C(=O)[C@H](C(C)C)NC(=O)[C@H](CC(C)(C)O)N(C)C(=O)CN(C)C1=O [[8-(2-Acetamidoethyl)-6,7-dihydro-MeBmt]-1-[(γ-hydroxy)-N-MeLeu]-4-cyclosporin] as the compound, how does the IC50 [1, 3] read?
A: Its IC50 is < 35 nM.

Q: Which IC50 [1, 3] does the source give for CC[C@@H]1NC(=O)[C@H]([C@H](O)[C@H](C)CCCCCCNC(C)=O)N(C)C(=O)[C@H](C(C)C)N(C)C(=O)[C@H](CC(C)C)N(C)C(=O)[C@H](CC(C)C)N(C)C(=O)[C@@H](C)NC(=O)[C@H](C)NC(=O)[C@H](CC(C)C)N(C)C(=O)[C@H](C(C)C)NC(=O)[C@H](CC(C)C)N(C)C(=O)CN(C)C1=O [[8-(2-Acetamidoethyl)-6,7-dihydro-MeBmt]-1-cyclosporin] here?
A: The IC50 was < 35 nM.

Q: What does the source list for C/C=C/C[C@@H](C)[C@@H](O)[C@H]1C(=O)N[C@@H](CC)C(=O)N(C)[C@H](CSCCCCO)C(=O)N(C)[C@@H](CC(C)(C)O)C(=O)N[C@@H](C(C)C)C(=O)N(C)[C@@H](CC(C)C)C(=O)N[C@@H](C)C(=O)N[C@H](C)C(=O)N(C)[C@@H](CC(C)C)C(=O)N(C)[C@@H](CC(C)C)C(=O)N(C)[C@@H](C(C)C)C(=O)N1C [[(S)-(4-Hydroxylbutylthio)methyl-Sar]-3-[(γ-hydroxy)-N-MeLeu]-4-cyclosporin]?
A: IC50 (Human recombinant CypA): < 4 nM; EC50 (Cyclophilin D (CyPD)): < 4 nM

Q: Which IC50 [1, 3] does the source give for C/C=C/C[C@@H](C)[C@@H](O)[C@H]1C(=O)N[C@@H](CC)C(=O)N(C)CC(=O)N(C)[C@@H]([C@@H](C)CC)C(=O)N[C@@H](C(C)C)C(=O)N(C)[C@@H](CC(C)C)C(=O)N[C@@H](C)C(=O)N[C@H](C)C(=O)N(C)[C@@H](CC(C)C)C(=O)N(C)[C@@H](CC(C)C)C(=O)N(C)[C@@H](C(C)C)C(=O)N1C [[N-MeIle]-4-cyclosporin (SDZ-NIM-811), N-MeIle-4-Cyclosporin] here?
A: The IC50 was 90 to 250 nM.

Q: With C/C=C/C[C@@H](C)[C@@H](O)[C@H]1C(=O)N[C@@H](CC)C(=O)N(C)CC(=O)N(C)[C@@H](C(C)C)C(=O)N[C@@H](C(C)C)C(=O)N(C)[C@@H](CC(C)C)C(=O)N[C@@H](C)C(=O)N[C@H](C)C(=O)N(C)[C@@H](CC(C)C)C(=O)N(C)[C@@H](CC(C)C)C(=O)N(C)[C@@H](C(C)C)C(=O)N1C [[N-MeVal]-4-cyclosporin (SDZ 220-384), N-MeVal-4-Cyclosporin] as the compound, how does the IC50 [1, 4] read?
A: Its IC50 is 90 to 250 nM.

Q: Which IC50 [1, 4] does the source give for “[8-(2-Acetamidoethyl)-6,7-dihydro-MeBmt]-1-[(S)-(4-hydroxybutylthio)methyl-Sar]-3-[(γ-hydroxy)-N-MeLeu]-4-cyclosporin” here?
A: Its IC50 is < 35 nM.
